Data as given in patent US9802960B2 (MILLENNIUM PHARMACEUTICALS, INC., priority 2014, dated 2017).

These molecules were tested against Human VPS34 (Homo sapiens (Human), UniProt Q8NEB9) (assay: Human VPS34 enzyme assay (Adapta TR-FRET)). Conditions: compound concentration 1.11 μM; read-out: Percent Inhibition.
Format: biochemical

Chain of Human VPS34 (Q8NEB9 whole entry): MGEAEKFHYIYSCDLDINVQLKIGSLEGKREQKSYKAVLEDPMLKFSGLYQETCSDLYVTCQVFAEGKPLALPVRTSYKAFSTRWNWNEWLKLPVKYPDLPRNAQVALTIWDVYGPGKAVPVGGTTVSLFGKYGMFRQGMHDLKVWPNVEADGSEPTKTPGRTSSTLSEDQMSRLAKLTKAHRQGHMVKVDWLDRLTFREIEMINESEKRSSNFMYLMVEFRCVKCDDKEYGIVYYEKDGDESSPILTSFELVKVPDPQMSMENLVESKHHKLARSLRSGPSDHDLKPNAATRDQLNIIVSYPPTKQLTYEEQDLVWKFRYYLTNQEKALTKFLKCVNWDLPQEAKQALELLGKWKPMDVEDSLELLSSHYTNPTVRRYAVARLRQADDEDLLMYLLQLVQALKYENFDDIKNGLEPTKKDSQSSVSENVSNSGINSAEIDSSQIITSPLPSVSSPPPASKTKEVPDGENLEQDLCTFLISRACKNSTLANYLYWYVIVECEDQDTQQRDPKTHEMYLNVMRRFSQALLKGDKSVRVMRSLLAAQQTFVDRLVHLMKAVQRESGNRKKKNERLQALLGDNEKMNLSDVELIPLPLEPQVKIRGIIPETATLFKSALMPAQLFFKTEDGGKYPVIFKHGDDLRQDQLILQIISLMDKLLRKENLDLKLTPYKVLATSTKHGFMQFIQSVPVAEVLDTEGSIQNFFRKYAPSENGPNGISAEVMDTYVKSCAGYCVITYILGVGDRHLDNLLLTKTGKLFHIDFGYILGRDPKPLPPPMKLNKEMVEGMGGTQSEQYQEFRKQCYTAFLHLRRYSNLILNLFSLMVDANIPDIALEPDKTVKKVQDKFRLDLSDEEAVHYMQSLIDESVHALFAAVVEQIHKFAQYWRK

**Q.** How did the inhibition at 1.11 µM turn out when `CC(=O)Nc1cc(-c2cnc(Cl)c(S(=O)(=O)N[C@@H](CO)c3ccccc3)c2)ccn1` [Compound I-403, N-(6-chloro-5-{[(1R)-2-hydroxy-1-phenylethyl]sulfamoyl}-3,4′-bipyridin-2′-yl)acetamide] was run?
**A.** The inhibition at 1.11 µM was 92%.

**Q.** How did the inhibition at 1.11 µM turn out when `CC(=O)Nc1cc(-c2cc(NS(=O)(=O)c3ccc(F)cc3F)c3ccnn3c2)ccn1` [Compound I-404, N-[4-(4-{[(2,4-difluorophenyl)sulfonyl]amino}pyrazolo[1,5-a]pyridin-6-yl)pyridin-2-yl]acetamide] was run?
**A.** The inhibition at 1.11 µM was 94%.

**Q.** How did the inhibition at 1.11 µM turn out when `CC(=O)Nc1cc(-c2cncc(N3CCOc4cc(F)ccc4S3(=O)=O)c2)ccn1` [Compound I-405] was run?
**A.** Its inhibition at 1.11 µM is greater than 99%.

**Q.** Which inhibition at 1.11 µM does the source give for `Cc1nccc(Nc2cc(-c3cnc4c(c3)C(=O)NCC4)ccn2)n1` [Compound I-406, 3-[2-[(2-methylpyrimidin-4-yl)amino]-4-pyridyl]-7,8-dihydro-6H-1,6-naphthyridin-5-one] here?
**A.** Its inhibition at 1.11 µM is 80%.

**Q.** Which inhibition at 1.11 µM does the source give for `Cc1nccc(Nc2cc(-c3cc(NC(=O)N4CC(F)(F)C4)c4ccnn4c3)ccn2)n1` [Compound I-407, 3,3-difluoro-N-(6-{2-[(2-methylpyrimidin-4-yl)amino]pyridin-4-yl}pyrazolo[1,5-a]pyridin-4-yl)azetidine-1-carboxamide] here?
**A.** The inhibition at 1.11 µM was 98%.

**Q.** For `Cc1nccc(Nc2cc(-c3cncc(C(=O)N4CC(F)(F)C4)c3)ccn2)n1` [Compound I-408, (3,3-difluoroazetidin-1-yl){2′-[(2-methylpyrimidin-4-yl)amino]-3,4′-bipyridin-5-yl}methanone], which inhibition at 1.11 µM is on record?
**A.** Its inhibition at 1.11 µM is greater than 99%.

**Q.** For `CC(=O)Nc1cc(-c2cnc(N)c(C(=O)NC(=N)N)c2)ccn1` [Compound I-409, 2′-acetamido-6-amino-N-carbamimidoyl-3,4′-bipyridine-5-carboxamide], which inhibition at 1.11 µM is on record?
**A.** The inhibition at 1.11 µM was 82%.

**Q.** How did the inhibition at 1.11 µM turn out when `CC(=O)Nc1cc(-c2cnc(Cl)c(S(=O)(=O)NC(C)(C)C)c2C)ccn1` [Compound I-410, N-[5-(tert-butylsulfamoyl)-6-chloro-4-methyl-3,4′-bipyridin-2′-yl]acetamide] was run?
**A.** The inhibition at 1.11 µM was 96%.

**Q.** For `CC(=O)Nc1cc(-c2cnc(C#N)c(NS(=O)(=O)c3ccc(F)cc3F)c2)ccn1` [Compound I-411, N-(6-cyano-5-{[(2,4-difluorophenyl)sulfonyl]amino}-3,4′-bipyridin-2′-yl)acetamide], which inhibition at 1.11 µM is on record?
**A.** Its inhibition at 1.11 µM is 88%.

**Q.** `CC(=O)Nc1cc(-c2cnc(C)c(NS(=O)(=O)CC(F)F)c2)ccn1` [Compound I-412, N-(5-{[(2,2-difluoroethyl)sulfonyl]amino}-6-methyl-3,4′-bipyridin-2′-yl)acetamide] was tested. Which inhibition at 1.11 µM did it give?
**A.** Its inhibition at 1.11 µM is 97%.

**Q.** With `O=C(c1cncc(-c2ccnc(Nc3ccnc(C4CC4)n3)c2)c1)N1CC(F)(F)C1` [Compound I-413] as the molecule, how does the inhibition at 1.11 µM read?
**A.** The inhibition at 1.11 µM was greater than 99%.

**Q.** How did the inhibition at 1.11 µM turn out when `CC(=O)Nc1cc(-c2cnc(C)c(NS(=O)(=O)c3ccc(F)cc3F)c2)cc(C)n1` [Compound I-414, N-(5-{[(2,4-difluorophenyl)sulfonyl]amino}-6,6′-dimethyl-3,4′-bipyridin-2′-yl)acetamide] was run?
**A.** Its inhibition at 1.11 µM is 89%.

**Q.** Which inhibition at 1.11 µM does the source give for `Cc1nccc(Nc2cc(-c3cnc(C)c(C(=O)N4CC5(COC5)C4)c3)ccn2)n1` [Compound I-415, {6-methyl-2′-[(2-methylpyrimidin-4-yl)amino]-3,4′-bipyridin-5-yl}(2-oxa-6-azaspiro[3.3]hept-6-yl)methanone] here?
**A.** Its inhibition at 1.11 µM is 82%.

**Q.** With `CC(=O)Nc1cc(-c2cnc(C)c(N3CC=CS3(=O)=O)c2)ccn1` [Compound I-416, N-[5-(1,1-dioxidoisothiazol-2(3H)-yl)-6-methyl-3,4′-bipyridin-2′-yl]acetamide] as the molecule, how does the inhibition at 1.11 µM read?
**A.** Its inhibition at 1.11 µM is greater than 99%.

**Q.** With `COC(=O)Nc1cc(-c2cnc(C)c(NS(=O)(=O)c3ccc(Cl)cc3F)c2)ccn1` [Compound I-417, methyl (5-{[(4-chloro-2-fluorophenyl)sulfonyl]amino}-6-methyl-3,4′-bipyridin-2′-yl)carbamate] as the molecule, how does the inhibition at 1.11 µM read?
**A.** Its inhibition at 1.11 µM is greater than 99%.

**Q.** With `CC(=O)Nc1cc(-c2cnc(C)c(S(=O)(=O)NC34CC(C3)C4)c2)ccn1` [Compound I-418, N-[5-(bicyclo[1.1.1]pent-1-ylsulfamoyl)-6-methyl-3,4′-bipyridin-2′-yl]acetamide] as the molecule, how does the inhibition at 1.11 µM read?
**A.** The inhibition at 1.11 µM was greater than 99%.

**Q.** Which inhibition at 1.11 µM does the source give for `CC(=O)Nc1cc(-c2cncc(NC(=O)c3ccc(F)cc3F)c2)ccn1` [Compound I-419, N-(2′-acetamido-3,4′-bipyridin-5-yl)-2,4-difluorobenzamide] here?
**A.** The inhibition at 1.11 µM was 56%.

**Q.** How did the inhibition at 1.11 µM turn out when `CC(=O)Nc1cc(-c2cnc3c(c2)S(=O)(=O)N[C@H](c2ccccc2)CO3)ccn1` [Compound I-420, (R)-N-(4-(1,1-dioxido-3-phenyl-3,4-dihydro-2H-pyrido[2,3-b][1,4,5]oxathiazepin-8-yl)pyridin-2-yl)acetamide] was run?
**A.** The inhibition at 1.11 µM was 59%.

**Q.** Which inhibition at 1.11 µM does the source give for `Cc1nccc(Nc2cc(-c3cncc(C(C)Oc4ccccc4F)c3)ccn2)n1` (stereo not shown) [Compound I-422, 5-[1-(2-fluorophenoxy)ethyl]-N-(2-methylpyrimidin-4-yl)-3,4′-bipyridin-2′-amine] here?
**A.** The inhibition at 1.11 µM was 96%.

**Q.** How did the inhibition at 1.11 µM turn out when `COc1ncc(-c2ccnc(NC(C)=O)c2)cc1C(=O)N(C)c1ccc(F)cc1F` [Compound I-423, 2′-acetamido-N-(2,4-difluorophenyl)-6-methoxy-N-methyl-3,4′-bipyridine-5-carboxamide] was run?
**A.** The inhibition at 1.11 µM was greater than 99%.

**Q.** `Cc1nccc(Nc2cc(-c3cnc(C)c(OCCO)c3)ccn2)n1` [Compound I-424, 2-({6-methyl-2′-[(2-methylpyrimidin-4-yl)amino]-3,4′-bipyridin-5-yl}oxy)ethanol] was tested. Which inhibition at 1.11 µM did it give?
**A.** Its inhibition at 1.11 µM is greater than 99%.

**Q.** How did the inhibition at 1.11 µM turn out when `CC(=O)Nc1cc(-c2cnc(Cl)c(N3CCCS3(=O)=O)c2C)ccn1` [Compound I-425, N-[6-chloro-5-(1,1-dioxidoisothiazolidin-2-yl)-4-methyl-3,4′-bipyridin-2′-yl]acetamide] was run?
**A.** The inhibition at 1.11 µM was 100%.

**Q.** `COc1ncc(-c2ccnc(NC(C)=O)c2)cc1S(=O)(=O)NC1CCC1` [Compound I-426, N-[5-(cyclobutylsulfamoyl)-6-methoxy-3,4′-bipyridin-2′-yl]acetamide] was tested. Which inhibition at 1.11 µM did it give?
**A.** The inhibition at 1.11 µM was greater than 99%.

**Q.** With `CN(C)S(=O)(=O)Nc1cc(-c2ccnc(Nc3ccnc(C4CC4)n3)c2)cn2nccc12` [Compound I-427, N′-(6-{2-[(2-cyclopropylpyrimidin-4-yl)amino]pyridin-4-yl}pyrazolo[1,5-a]pyridin-4yl)-N,N-dimethylsulfuric diamide] as the molecule, how does the inhibition at 1.11 µM read?
**A.** Its inhibition at 1.11 µM is greater than 99%.

**Q.** With `CC(=O)Nc1cc(-c2cc(OS(=O)(=O)N(C)C)c3ccnn3c2)ccn1` [Compound I-428, 6-(2-acetamidopyridin-4-yl)pyrazolo[1,5-a]pyridin-4-yl dimethylsulfamate] as the molecule, how does the inhibition at 1.11 µM read?
**A.** Its inhibition at 1.11 µM is greater than 99%.

**Q.** With `CC(=O)Nc1cc(-c2cnc(Cl)c(NS(=O)(=O)c3ccc(C#N)cc3)c2C)ccn1` [Compound I-429, N-(6-chloro-5-{[(4-cyanophenyl)sulfonyl]amino}-4-methyl-3,4′-bipyridin-2′-yl)acetamide] as the molecule, how does the inhibition at 1.11 µM read?
**A.** Its inhibition at 1.11 µM is 96%.

**Q.** For `Cc1cnc(NC(=O)C2CC2)cc1-c1cnc(Cl)c(NS(=O)(=O)c2ccc(F)cc2F)c1C` [Compound I-430, N-(6-chloro-5-{[(2,4-difluorophenyl)sulfonyl]amino}-4,5′-dimethyl-3,4′-bipyridin-2′-yl)cyclopropanecarboxamide], which inhibition at 1.11 µM is on record?
**A.** The inhibition at 1.11 µM was 92%.

**Q.** How did the inhibition at 1.11 µM turn out when `CC(=O)Nc1cc(-c2cnc(C)c(C(=O)Nc3ccc(F)cc3F)c2)ccn1` [Compound I-431, 2′-acetamido-N-(2,4-difluorophenyl)-6-methyl-3,4′-bipyridine-5-carboxamide] was run?
**A.** Its inhibition at 1.11 µM is 74%.

**Q.** With `COc1ncc(-c2ccnc(NC(C)=O)c2)cc1S(=O)(=O)Nc1cc(Cl)ccc1Cl` [Compound I-432, N-{5-[(2,5-dichlorophenyl)sulfamoyl]-6-methoxy-3,4′-bipyridin-2′-yl}acetamide] as the molecule, how does the inhibition at 1.11 µM read?
**A.** The inhibition at 1.11 µM was 98%.

**Q.** Which inhibition at 1.11 µM does the source give for `Cc1ncc(-c2ccnc(NC(=O)C3CC3)c2)cc1NS(=O)(=O)c1ccc(Cl)cc1F` [Compound I-433, N-(5-{[(4-chloro-2-fluorophenyl)sulfonyl]amino}-6-methyl-3,4′-bipyridin-2′-yl)cyclopropanecarboxamide] here?
**A.** Its inhibition at 1.11 µM is 93%.

**Q.** How did the inhibition at 1.11 µM turn out when `CC(=O)Nc1cc(-c2cnc(Cl)c(C(=O)N3CCC3)c2)c(C)cn1` [Compound I-434] was run?
**A.** Its inhibition at 1.11 µM is 36%.

**Q.** Which inhibition at 1.11 µM does the source give for `Cc1c(-c2ccnc(Nc3ccnc(C4CC4)n3)c2)cnc(Cl)c1NS(=O)(=O)N(C)C` [Compound I-435, N′-{6-chloro-2′-[(2-cyclopropylpyrimidin-4-yl)amino]-4-methyl-3,4′-bipyridin-5-yl}-N,N-dimethylsulfuric diamide] here?
**A.** Its inhibition at 1.11 µM is 96%.

**Q.** `CNc1ncc(-c2ccnc(NC(C)=O)c2)c(C)c1S(=O)(=O)NC(C)(C)C` [Compound I-436, N-[5-(tert-butylsulfamoyl)-4-methyl-6-(methylamino)-3,4′-bipyridin-2′-yl]acetamide] was tested. Which inhibition at 1.11 µM did it give?
**A.** The inhibition at 1.11 µM was 89%.

**Q.** Which inhibition at 1.11 µM does the source give for `CC(=O)Nc1cc(-c2cnc(Cl)c(NS(=O)(=O)c3cccc4ncccc34)c2C)ccn1` [Compound I-437, N-{6-chloro-4-methyl-5-[(quinolin-5-ylsulfonyl)amino]-3,4′-bipyridin-2′-yl}acetamide] here?
**A.** Its inhibition at 1.11 µM is greater than 99%.

**Q.** With `CC(=O)Nc1cc(-c2cnc(Cl)c(S(=O)(=O)NC3CCC3)c2)ccn1` [Compound I-438, N-[6-chloro-5-(cyclobutylsulfamoyl)-3,4′-bipyridin-2′-yl]acetamide] as the molecule, how does the inhibition at 1.11 µM read?
**A.** Its inhibition at 1.11 µM is greater than 99%.

**Q.** For `Cc1nccc(Nc2cc(-c3cnc(C)c(NC(=O)Nc4ccccc4)c3)ccn2)n1` [Compound I-439, 1-{6-methyl-2′-[(2-methylpyrimidin-4-yl)amino]-3,4′-bipyridin-5-yl}-3-phenylurea], which inhibition at 1.11 µM is on record?
**A.** Its inhibition at 1.11 µM is 69%.

**Q.** `Cc1nccc(Nc2cc(-c3cncc(OC4CCc5c(F)cccc54)c3)ccn2)n1` (stereo not shown) [Compound I-440, 5-[(4-fluoro-2,3-dihydro-1H-inden-1-yl)oxy]-N-(2-methylpyrimidin-4-yl)-3,4′-bipyridin-2′-amine] was tested. Which inhibition at 1.11 µM did it give?
**A.** Its inhibition at 1.11 µM is 83%.

**Q.** For `Cc1ncc(-c2ccnc(NC(=O)C3CC3(F)F)c2)cc1NS(=O)(=O)c1ccc(Cl)cc1F` (stereo not shown) [Compound I-441, N-(5-{[(4-chloro-2-fluorophenyl)sulfonyl]amino}-6-methyl-3,4′-bipyridin-2′-yl)-2,2-difluorocyclopropanecarboxamide], which inhibition at 1.11 µM is on record?
**A.** The inhibition at 1.11 µM was greater than 99%.

**Q.** How did the inhibition at 1.11 µM turn out when `COc1ncc(-c2ccnc(NC(C)=O)c2)c(C)c1S(=O)(=O)NC(C)(C)C` [Compound I-442, N-[5-(tert-butylsulfamoyl)-6-methoxy-4-methyl-3,4′-bipyridin-2′-yl]acetamide] was run?
**A.** Its inhibition at 1.11 µM is greater than 99%.

**Q.** With `CC(=O)Nc1cc(-c2cncc(S(=O)(=O)NC(C)(C)C)c2)ccn1` [Compound I-443, N-[5-(tert-butylsulfamoyl)-3,4′-bipyridin-2′-yl]acetamide] as the molecule, how does the inhibition at 1.11 µM read?
**A.** Its inhibition at 1.11 µM is greater than 99%.
